The structures appear in SMILES notation. pIC50: −log10 of the molar value.

human MGL from HeLa cells, sequence (Q99685 whole entry): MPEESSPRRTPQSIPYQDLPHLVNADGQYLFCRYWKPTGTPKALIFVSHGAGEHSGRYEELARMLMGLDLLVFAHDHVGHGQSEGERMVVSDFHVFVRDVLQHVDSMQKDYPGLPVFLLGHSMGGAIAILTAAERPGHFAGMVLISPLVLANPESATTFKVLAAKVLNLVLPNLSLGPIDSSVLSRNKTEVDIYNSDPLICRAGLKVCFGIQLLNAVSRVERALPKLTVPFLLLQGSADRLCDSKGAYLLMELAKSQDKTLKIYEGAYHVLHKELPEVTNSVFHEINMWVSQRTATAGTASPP

For the experiment, the target named is human MGL from HeLa cells (Homo sapiens (Human), UniProt Q99685). Put plainly: MGL in vitro activity assay ([glycerol-1,3-3H]-oleoyl glycerol hydrolysis, activated carbon filtration). The class given is biochemical. The following applies: 300 nM [Glycerol-1,3-3H]-oleoyl glycerol, one hour. In short, it runs like this:
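Endogenous human MGL in HeLa cells/homogenates incubated 1 h with test compounds and 300 nM [glycerol-1,3-3H]-oleoyl glycerol. Released 3H-glycerol passing an activated carbon filter counted as activity; screening at 10 μM compound, top IC50 concentration set empirically.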
In the case of `Cc1cc(CC2CC3(C2)CN(C(=O)[C@H]2C[C@@](C)(O)C2)C3)ccc1C(F)(F)F` [Example 212, ((1s,3s)-3-Hydroxy-3-methylcyclobutyl)(6-(3-methyl-4-(trifluoromethyl)benzyl)-2-azaspiro[3.3]heptan-2-yl)methanone], the pIC50 was 9.52. Next, `Cc1ccc(CC2CC3(C2)CN(C(=O)[C@H]2C[C@@](C)(O)C2)C3)c(C(F)(F)F)c1` [Example 213, ((1s,3s)-3-Hydroxy-3-methylcyclobutyl)(6-(4-methyl-2-(trifluoromethyl)benzyl)-2-azaspiro[3.3]heptan-2-yl)methanone]: 8.39; `Cn1nc(C(F)(F)F)cc1CC1CC2(C1)CN(C(=O)[C@H]1C[C@@](C)(O)C1)C2` [Example 214, ((1s,3s)-3-Hydroxy-3-methylcyclobutyl)(6-((1-methyl-3-(trifluoromethyl)-1H-pyrazol-5-yl)methyl)-2-azaspiro[3.3]heptan-2-yl)methanone]: 6.38; `Cn1ncc2ccc(CC3CC4(C3)CN(C(=O)[C@H]3C[C@@](C)(O)C3)C4)cc21` [Example 215, ((1s,3s)-3-Hydroxy-3-methylcyclobutyl)(6-((1-methyl-1H-indazol-6-yl)methyl)-2-azaspiro[3.3]heptan-2-yl)methanone]: 7.37. In the case of `COc1ccccc1CC1CC2(C1)CN(C(=O)[C@H]1C[C@@](C)(O)C1)C2` [Example 216, ((1s,3s)-3-Hydroxy-3-methylcyclobutyl)(6-(2-methoxybenzyl)-2-azaspiro[3.3]heptan-2-yl)methanone], the pIC50 was 7.92. Compound `COc1ccc(CC2CC3(C2)CN(C(=O)[C@H]2C[C@@](C)(O)C2)C3)c(C(F)(F)F)c1` [Example 217, ((1s,3s)-3-Hydroxy-3-methylcyclobutyl)(6-(4-methoxy-2-(trifluoromethyl)benzyl)-2-azaspiro[3.3]heptan-2-yl)methanone] gave a pIC50 of 8.46. Against the preceding compound, the pIC50 is 0.54 log units higher.

`C[C@]1(O)C[C@@H](C(=O)N2CC3(CC(Cc4cccc(C5CC5)c4)C3)C2)C1` [Example 218, (6-(3-Cyclopropylbenzyl)-2-azaspiro[3.3]heptan-2-yl)((1s,3s)-3-hydroxy-3-methylcyclobutyl)methanone] gave a negative-log IC50 (pIC50) of 8.20. In the case of `C[C@]1(O)C[C@@H](C(=O)N2CC3(CC(Cc4ccc(C5CC5)cc4)C3)C2)C1` [Example 219, (6-(4-Cyclopropylbenzyl)-2-azaspiro[3.3]heptan-2-yl)((1s,3s)-3-hydroxy-3-methylcyclobutyl)methanone] it was 8.92. Next, `C[C@]1(O)C[C@@H](C(=O)N2CC3(CC(Cc4ccc(OC(F)(F)F)cc4)C3)C2)C1` [Example 220, ((1s,3s)-3-Hydroxy-3-methylcyclobutyl)(6-(4-(trifluoromethoxy)benzyl)-2-azaspiro[3.3]heptan-2-yl)methanone]: 8.96; `C[C@]1(O)C[C@@H](C(=O)N2CC3(CC(Cc4ccc(OC(F)F)cc4)C3)C2)C1` [Example 221, (6-(4-(Difluoromethoxy)benzyl)-2-azaspiro[3.3]heptan-2-yl)((1s,3s)-3-hydroxy-3-methylcyclobutyl)methanone]: 8.29; `CCc1cccc(CC2CC3(C2)CN(C(=O)[C@H]2C[C@@](C)(O)C2)C3)c1` [Example 222, (6-(3-Ethylbenzyl)-2-azaspiro[3.3]heptan-2-yl)((1s,3s)-3-hydroxy-3-methylcyclobutyl)methanone]: 8.29.

`C[C@]1(O)C[C@@H](C(=O)N2CC3(CC(Cc4cccc(C(F)(F)F)n4)C3)C2)C1` [Example 223, ((1s,3s)-3-Hydroxy-3-methylcyclobutyl)(6-((6-(trifluoromethyl)pyridin-2-yl)methyl)-2-azaspiro[3.3]heptan-2-yl)methanone] gave a pIC50 of 6.77. In turn, `Cn1ccc2ccc(CC3CC4(C3)CN(C(=O)[C@H]3C[C@@](C)(O)C3)C4)nc21` [Example 224, ((1s,3s)-3-Hydroxy-3-methylcyclobutyl)(6-((1-methyl-1H-pyrrolo[2,3-b]pyridin-6-yl)methyl)-2-azaspiro[3.3]heptan-2-yl)methanone] showed a pIC50 of 7.57. In the case of `Cn1cc(CC2CC3(C2)CN(C(=O)[C@H]2C[C@@](C)(O)C2)C3)c(C(F)(F)F)n1` [Example 225, ((1s,3s)-3-Hydroxy-3-methylcyclobutyl)(6-((1-methyl-3-(trifluoromethyl)-1H-pyrazol-4-yl)methyl)-2-azaspiro[3.3]heptan-2-yl)methanone] it was 6.92; in that of `Cc1cccc(C(F)(F)F)c1CC1CC2(C1)CN(C(=O)[C@H]1C[C@@](C)(O)C1)C2` [Example 226, ((1s,3s)-3-Hydroxy-3-methylcyclobutyl)(6-(2-methyl-6-(trifluoromethyl)benzyl)-2-azaspiro[3.3]heptan-2-yl)methanone], 8.68. In the case of `Cc1c(F)cccc1CC1CC2(C1)CN(C(=O)[C@H]1C[C@@](C)(O)C1)C2` [Example 227, (6-(3-Fluoro-2-methylbenzyl)-2-azaspiro[3.3]heptan-2-yl)((1s,3s)-3-hydroxy-3-methylcyclobutyl)methanone] it was 7.70; in that of `Cc1cc(CC2CC3(C2)CN(C(=O)[C@H]2C[C@@](C)(O)C2)C3)ccc1F` [Example 228, (6-(4-Fluoro-3-methylbenzyl)-2-azaspiro[3.3]heptan-2-yl)((1s,3s)-3-hydroxy-3-methylcyclobutyl)methanone], 7.82.

`Cc1ccc(CC2CC3(C2)CN(C(=O)[C@H]2C[C@@](C)(O)C2)C3)cc1F` [Example 229, (6-(3-Fluoro-4-methylbenzyl)-2-azaspiro[3.3]heptan-2-yl)((1s,3s)-3-hydroxy-3-methylcyclobutyl)methanone] showed a pIC50 of 7.92.

Regarding `Cc1ccc(CC2CC3(C2)CN(C(=O)[C@H]2C[C@@](C)(O)C2)C3)c(F)c1` [Example 230, (6-(2-Fluoro-4-methylbenzyl)-2-azaspiro[3.3]heptan-2-yl)((1s,3s)-3-hydroxy-3-methylcyclobutyl)methanone], the pIC50 was 8.19.

Compound `C[C@]1(O)C[C@@H](C(=O)N2CC3(CC(Cc4cccc(C(F)F)c4)C3)C2)C1` [Example 231, (6-(3-(Difluoromethyl)benzyl)-2-azaspiro[3.3]heptan-2-yl)((1s,3s)-3-hydroxy-3-methylcyclobutyl)methanone] showed a pIC50 of 7.85. This pIC50 is 0.34 log units lower than that of the compound before. Next, `C[C@]1(O)C[C@@H](C(=O)N2CC3(CC(Cc4ccc(C(F)F)cc4)C3)C2)C1` [Example 232, (6-(4-(Difluoromethyl)benzyl)-2-azaspiro[3.3]heptan-2-yl)((1s,3s)-3-hydroxy-3-methylcyclobutyl)methanone]: 7.96; `CC(C)(C)c1cccc(CC2CC3(C2)CN(C(=O)[C@H]2C[C@@](C)(O)C2)C3)n1` [Example 233, (6-((6-(tert-Butyl)pyridin-2-yl)methyl)-2-azaspiro[3.3]heptan-2-yl)((1s,3s)-3-hydroxy-3-methylcyclobutyl)methanone]: 6.56; `C[C@]1(O)C[C@@H](C(=O)N2CC3(CCC(Cc4ccccc4)CC3)C2)C1` [Example 235, (7-Benzyl-2-azaspiro[3.5]nonan-2-yl)((1s,3s)-3-hydroxy-3-methylcyclobutyl)methanone]: 7.40.

On to `Cc1ccccc1CC1CCC2(CC1)CN(C(=O)[C@H]1C[C@@](C)(O)C1)C2` [Example 236, ((1s,3s)-3-Hydroxy-3-methylcyclobutyl)(7-(2-methylbenzyl)-2-azaspiro[3.5]nonan-2-yl)methanone], for which the pIC50 is 7.31.

Turning to `C[C@]1(O)C[C@@H](C(=O)N2CC3(CC(Cn4ccc(C(F)(F)F)n4)C3)C2)C1` [Example 237, ((1s,3s)-3-Hydroxy-3-methylcyclobutyl)(6-((3-(trifluoromethyl)-1H-pyrazol-1-yl)methyl)-2-azaspiro[3.3]heptan-2-yl)methanone], the pIC50 is 6.08. The compound `Cc1ccccc1OC1CC2(C1)CN(C(=O)[C@H]1C[C@@](C)(O)C1)C2` [Example 238, ((1s,3s)-3-Hydroxy-3-methylcyclobutyl)(6-(o-tolyloxy)-2-azaspiro[3.3]heptan-2-yl)methanone] showed a pIC50 of 6.27.

Consider `Cc1cc(OC2CCC3(CC2)CN(C(=O)[C@H]2C[C@@](C)(O)C2)C3)ccc1C(F)(F)F` [Example 239, ((1s,3s)-3-Hydroxy-3-methylcyclobutyl)(7-(3-methyl-4-(trifluoromethyl)phenoxy)-2-azaspiro[3.5]nonan-2-yl)methanone], for which the pIC50 is 9.40. In the case of `CC(C)c1cccc(OC2CCC3(CC2)CN(C(=O)[C@H]2C[C@@](C)(O)C2)C3)c1` [Example 241, ((1s,3s)-3-Hydroxy-3-methylcyclobutyl)(7-(3-isopropylphenoxy)-2-azaspiro[3.5]nonan-2-yl)methanone] it was 7.57.

Compound `CC(C)c1ccc(OC2CCC3(CC2)CN(C(=O)[C@H]2C[C@@](C)(O)C2)C3)cc1` [Example 242, ((1s,3s)-3-Hydroxy-3-methylcyclobutyl)(7-(4-isopropylphenoxy)-2-azaspiro[3.5]nonan-2-yl)methanone] gave a pIC50 of 8.20.

`CC(C)(C)c1cccc(OC2CC3(C2)CN(C(=O)[C@H]2C[C@@](C)(O)C2)C3)c1` [Example 244, (6-(3-(tert-Butyl)phenoxy)-2-azaspiro[3.3]heptan-2-yl)((1s,3s)-3-hydroxy-3-methylcyclobutyl)methanone] gave a pIC50 of 7.20. In the case of `Cc1ccc(OC2CC3(CCN(C(=O)[C@H]4C[C@@](C)(O)C4)CC3)C2)cc1` [Example 245, ((1s,3s)-3-Hydroxy-3-methylcyclobutyl)(2-(p-tolyloxy)-7-azaspiro[3.5]nonan-7-yl)methanone] it was 6.48; in that of `CC(C)(C)c1ccc(OC2CC3(C2)CN(C(=O)[C@H]2C[C@@](C)(O)C2)C3)cc1` [Example 246, (6-(4-(tert-Butyl)phenoxy)-2-azaspiro[3.3]heptan-2-yl)((1s,3s)-3-hydroxy-3-methylcyclobutyl)methanone], 7.08.

Source of the values: patent US11802111B2, “Cyclobutyl amide monoacylglycerol lipase modulators” (Janssen Pharmaceutica NV, priority 2020, dated 2023).
